Test results from PMC8000760, “Potential Effect of Pseudevernia furfuracea (L.) Zopf Extract and Metabolite Physodic Acid on Tumour Microenvironment Modulation in MCF-10A Cells” (Biomolecules, 2021).

How the values were obtained:
MCF-10A cells = assay: Flow cytometry cell cycle phase distribution; assay type: cell-based, human; conditions: treatment alone (IC10 of PSE/Phy, or TGF-β 30 ng/mL)
Protocol: The MCF-10A and BJ-5ta cells were seeded and cultivated for 24 h in a complete medium. One day after seeding, 30 ng/mL of TGF-β was added and cultivated for 7 days (d). TGF-β was added to induce epithelial–mesenchymal transition in tested cell lines. Lichen extract P. furfuracea (L.) Zopf and its metabolite physodic acid were added at time 0 h and then incubated for 24, 48 and 72 h for various analyses, as described in Figure 1.
The MCF-10A cells (1 × 10^4/well) were seeded in Petri dishes and stimulated with […] TGF-β for 7 days. […] After detaching, using Trypsin/EDTA, cells were harvested and pelleted by centrifugation at 1200 rpm for 5 min. Pellet was re-suspended in PBS and divided for a particular analysis. Cells were stained prior to analyses with E-Cadherin Mouse mAb (Alexa Fluor 488 conjugate) or N-cadherin Rabbit mAb (Alexa Fluor 647 conjugate) (Cell Signalling) for 15 min at RT in the dark. For the cell cycle analyses, cells were re-suspended in staining solution (final concentration 0.1% Triton X-100, 0.5 mg/mL ribonuclease A and 0.025 mg/mL propidium iodide (PI)), and incubated in the dark at RT for 30 min. All samples were analysed using a FACS Calibur flow cytometer (Becton Dickinson, San Jose, CA, USA). The IgG isotype control checking was performed for every used antibody.

[1] = test system: endothelial tube formation; conditions: cited from earlier work
angiogenesis in vivo = test system: angiogenesis in vivo; parameters: method as in PMID 22669534; conditions: chorioallantoic membrane assay and corneal angiogenesis assay; cited from earlier work
EMT process = conditions: through decreasing the mRNA level of E-cadherin; cited from earlier work
HUVEC = test system: HUVEC; parameters: method as in PMID 22669534; conditions: cited from earlier work
[2] = test system: N-cadherin, Snail, Twist, E-cadherin; parameters: method as in PMID 26371759; conditions: cited from earlier work

**Q.** Which “G1 cell cycle phase distribution” value (MCF-10A cells; 24 h) does the source give for TGF-β here?
**A.** 74.55 ± 1.59

**Q.** What about the “G2/M cell cycle phase distribution” value (MCF-10A cells; 24 h) of the same compound?
**A.** 13.25 ± 2.49

**Q.** What about the “S cell cycle phase distribution” value (MCF-10A cells; 24 h) of the same compound?
**A.** 11.15 ± 0.69

**Q.** What about the “Sub G0 cell cycle phase distribution” value (MCF-10A cells; 24 h) of the same compound?
**A.** 1.07 ± 0.22

**Q.** What about the “G1 cell cycle phase distribution” value (MCF-10A cells; 48 h) of the same compound?
**A.** 83.05 ± 2.74

**Q.** What about the “G2/M cell cycle phase distribution” value (MCF-10A cells; 48 h) of the same compound?
**A.** 8.63 ± 1.69

**Q.** What about the “S cell cycle phase distribution” value (MCF-10A cells; 48 h) of the same compound?
**A.** 7.39 ± 0.88

**Q.** What about the “Sub G0 cell cycle phase distribution” value (MCF-10A cells; 48 h) of the same compound?
**A.** 0.94 ± 0.16

**Q.** What about the “G1 cell cycle phase distribution” value (MCF-10A cells; 72 h) of the same compound?
**A.** 81.35 ± 0.37

**Q.** What about the “G2/M cell cycle phase distribution” value (MCF-10A cells; 72 h) of the same compound?
**A.** 10.85 ± 0.45

**Q.** And the “S cell cycle phase distribution” value (MCF-10A cells; 72 h)?
**A.** 6.61 ± 0.74

**Q.** What about the “Sub G0 cell cycle phase distribution” value (MCF-10A cells; 72 h) of the same compound?
**A.** 1.22 ± 0.07

**Q.** With `CC(=O)c1c(O)c(C)c(O)c2c1OC1=CC(=O)C(C(C)=O)C(=O)C12C` (centres unmarked) [usnic acid] as the compound, how does the “anti-angiogenic activity by inhibiting endothelial tube formation” value [1] read?
**A.** strong anti-angiogenic activity

**Q.** And the angiogenesis in vivo (angiogenesis in vivo)?
**A.** inhibits

**Q.** What about the “effect on the EMT process” value (EMT process) of the same compound?
**A.** inhibitory effect

**Q.** For `CC(=O)c1c(O)c(C)c(O)c2c1OC1=CC(=O)C(C(C)=O)C(=O)C12C` (stereo not drawn) [(+)- usnic acid], which “VEGF-induced HUVEC migration and tube formation” value (HUVEC) is on record?
**A.** inhibits

**Q.** For `CCCCCC(=O)Cc1cc(O)cc(O)c1C(=O)Oc1cc(O)c(C(=O)O)c(CCCCC)c1` [olivetoric acid], which endothelial tube formation [1] is on record?
**A.** inhibiting

**Q.** Which results are given for `COC(=O)c1c(C)c2c(c(C)c1O)OC(=O)c1c(C)c(Cl)c(O)c(C=O)c1O2` [physciosporin]?
**A.** changes in E-cadherin levels [2]: not observed; level of EMT-associated proteins N-cadherin, Snail and Twist [2]: decrease

**Q.** Which “anti-angiogenic activity by inhibiting endothelial tube formation” value [1] does the source give for `COC(=O)/C(=C1/OC(=O)C(c2ccccc2)=C1O)c1ccccc1` [vulpinic acid] here?
**A.** strong anti-angiogenic activity
